# Data from patent US20230233586A1, “COMPOUNDS AND METHODS FOR TREATING FUNGAL INFECTIONS” (Amplyx Pharmaceuticals, Inc., priority 2020, published 2023).
# Experiments:
# [1] = test system: Aspergillus fumigatus, Scedosporium prolificans, and Fusarium solani; experiment: 5-fluorouracil immunosuppressed mice with IMIs; assay type: in vivo
# [2] = target: fungal glycosylphosphatidylinositol (GPI)-anchored wall transfer protein 1 (GWT1) enzyme (Saccharomyces cerevisiae, UniProt P47026); experiment: Inhibition of fungal GWT1 enzyme; assay type: biochemical
# Chain of fungal glycosylphosphatidylinositol (GPI)-anchored wall transfer protein 1 (GWT1) enzyme (P47026 whole entry): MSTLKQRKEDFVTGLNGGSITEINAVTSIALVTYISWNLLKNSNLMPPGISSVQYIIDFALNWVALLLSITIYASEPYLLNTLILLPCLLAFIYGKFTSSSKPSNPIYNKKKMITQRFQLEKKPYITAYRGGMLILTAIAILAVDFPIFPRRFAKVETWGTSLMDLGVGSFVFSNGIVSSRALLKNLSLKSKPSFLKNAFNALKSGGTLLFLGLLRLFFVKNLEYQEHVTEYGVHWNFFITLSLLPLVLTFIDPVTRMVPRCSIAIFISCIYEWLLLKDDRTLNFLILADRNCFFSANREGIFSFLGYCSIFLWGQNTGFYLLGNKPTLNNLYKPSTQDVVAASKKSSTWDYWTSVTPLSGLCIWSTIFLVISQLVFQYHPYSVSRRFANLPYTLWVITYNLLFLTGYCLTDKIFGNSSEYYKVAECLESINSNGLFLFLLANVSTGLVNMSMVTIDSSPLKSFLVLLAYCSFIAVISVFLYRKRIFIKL
# Text: (§1) Compound 1A inhibits the fungal glycosylphosphatidylinositol (GPI)-anchored wall transfer protein 1 (GWT1) enzyme, a highly conserved inositol acylase that catalyzes an early step in the GPI-anchored biosynthesis pathway. This inhibition has pleiotropic effects on the fungal cell due to inhibition of cell wall mannoprotein localization, which comprises cell wall integrity, biofilm formation, germ tube formation, and fungal growth.
# [3] = test system: clinical isolates of rare mold infections and rare yeast infections; experiment: Antifungal activity against clinical isolates of rare mold and rare yeast infections; assay type: cell-based; details: broad range of clinical isolates of rare mold and rare yeast infections
# Text: These rare mold and rare yeast species generally pose no threat to healthy subjects, but can lead to invasive mold infections in immunocompromised individuals.
# [4] = test system: Candida spp., Cryptococcus spp., Aspergillus spp., Scedosporium spp., Fusarium spp., and some Mucorales fungi; experiment: In vitro antifungal activity; assay type: cell-based; details: including azole- and echinocandin-resistant strains
# [5] = target: T1, phosphatidylinositol glycan anchor biosynthesis class W (PIGW) protein (Homo sapiens, UniProt Q7Z7B1); experiment: Inhibition of PIGW, closest mammalian ortholog of GWT1; assay type: biochemical; details: closest mammalian ortholog of fungal GWT1
# T1 sequence (Q7Z7B1 1-504): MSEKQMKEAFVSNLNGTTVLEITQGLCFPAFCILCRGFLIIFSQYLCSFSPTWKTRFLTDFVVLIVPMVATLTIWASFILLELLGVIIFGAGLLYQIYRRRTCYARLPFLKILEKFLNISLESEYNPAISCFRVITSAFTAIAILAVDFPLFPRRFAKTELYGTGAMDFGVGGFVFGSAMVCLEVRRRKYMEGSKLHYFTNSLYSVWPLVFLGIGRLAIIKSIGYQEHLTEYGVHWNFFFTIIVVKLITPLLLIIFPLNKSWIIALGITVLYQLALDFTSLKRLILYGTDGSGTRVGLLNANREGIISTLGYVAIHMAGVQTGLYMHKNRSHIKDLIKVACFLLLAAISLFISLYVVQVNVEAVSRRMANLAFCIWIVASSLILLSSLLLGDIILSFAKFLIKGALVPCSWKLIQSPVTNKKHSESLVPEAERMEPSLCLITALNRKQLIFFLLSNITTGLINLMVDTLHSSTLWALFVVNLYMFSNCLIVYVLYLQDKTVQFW
# Text: as §1
# [6] = Phase 1 studies in healthy volunteers, safety and tolerability; assay type: in vivo, human
# Text: In Phase 1 clinical studies of compound 1, the safety, tolerability, and PK of single and multiple ascending doses administered intravenously (IV) and orally (PO) have been studied. To date, a total of 197 healthy volunteers and 21 patients with acute myeloid leukemia (AML) have received compound 1 across 5 Phase 1 studies. The duration of the multiple-dose regimens in these studies was 7, 14, and 42 days (6 weeks).
# The majority of the TEAEs were mild, transitory, and resolved without intervention. […] This IV dose regimen is identical to the IV dose regimen that will be used in this study. […] This PO-dose regimen is higher than the 700 mg PO dose that will be used in this study.
# [7] = test system: A. fumigatus, S. apiospermum, F. solani, and Rhizopus spp.; experiment: Cyclophosphamide and cortisone acetate immunosuppressed mice with IMIs; assay type: in vivo
# Tissue distribution = assay type: in vivo; details: IV and PO formulations
# Text: Compound 1 has a novel mechanism of action with broad spectrum activity against Candida spp. (yeast) and Aspergillus spp. (mold), including activity against polyene and azole-resistant strains of Aspergillus spp. […] Compound 1 has the potential to be used as a first-line agent for the treatment of IMIs through a unique mechanism of action. Thus, compound 1 has potential to fill an unmet need for patients with limited or no antifungal treatment options due to documented/anticipated resistance, contraindication, intolerance, or lack of clinical response to standard of care (SOC) antifungal therapy.
# Candida spp. [8] = experiment: Open-label study in non-neutropenic patients with candidemia; assay type: in vivo, human
# Procedure: Suspicion of antifungal-resistant candidemia is sufficient and subsequent documented resistance is not required for enrollment. The Study Drug Treatment Period will be up to a maximum of 14 days (inclusive of the loading dose [Study Day 1]). […] There will be a Follow-up Period of 4 weeks (+4 days) after EOT. The total duration of participation in the study is up to approximately 7.5 weeks (inclusive of the Screening Period [≤96 hours prior to Baseline]).
# Patients with a yeast identified in a blood culture or a positive rapid diagnostic method are eligible to be consented and screened for the study. Patients must have at least 1 positive blood test for Candida spp. (or yeast suspected to be Candida) for a diagnosis of candidemia to be considered for enrollment into the study. Patients with a positive blood culture showing yeast suspected to be Candida must have identification of Candida spp. from positive blood culture confirmed prior to dosing. Screening and Baseline procedures and the start of Compound 1 study drug will be initiated within 96 hours from the time that the SOC blood sample for the Candida spp. positive culture or rapid diagnostic test was drawn. Patients with 2 days (>48 hours) equivalent of prior systemic antifungal treatment at approved doses to treat the current episode of candidemia within 96 hours before first dose will be excluded.
# On Study Day 1 (or over the first 24 hours if started in the evening), a 1000 mg Compound 1 loading dose will be administered over 3 hours by IV infusion BID. On Study Days 2 and 3 of study drug, a 600 mg Compound 1 maintenance dose will be administered over 3 hours by IV infusion QD. On Study Day 4 and onward, the Compound 1 maintenance dose will be administered as either 600 mg Compound 1 IV infusion QD over 3 hours or 700 mg PO QD. […] Study drug will be administered for a maximum of 14 days. […] Candida spp. bloodstream infection will be monitored by daily blood culture during Study Drug Treatment until 2 consecutive blood cultures are negative, and at EOST, EOT, and 2 and 4 weeks after EOT, or Early Termination. Simultaneously drawn blood samples will be collected for Candida testing by T2 magnetic resonance (T2MR) assay at Baseline, during Study Drug Treatment, and EOST, or Early Termination. Other cultures, histopathology, and imaging tests to assess the site(s) and extent of candidemia infection at other sites will be conducted as clinically indicated, and the results should be recorded in the electronic Case Report Form (eCRF). The management of intravascular catheters, intravascular devices, and, if applicable, any drains will be recorded, including any associated microbiology results. Patients will be monitored for safety throughout the duration of the study.
# On Study Day 1 (or over the first 24 hours if started in the evening), a 1000 mg Compound 1 loading dose will be administered over 3 hours by IV infusion BID. On Study Days 2 and 3 of study drug, a 600 mg Compound 1 maintenance dose will be administered over 3 hours by IV infusion QD. On Study Day 4 and onward, the Compound 1 maintenance dose will be administered as either 600 mg Compound 1 IV infusion QD over 3 hours or 700 mg PO QD. […] Study drug will be administered for a maximum of 14 days (inclusive of the loading dose [Study Day 1]). Tablets are to be administered at the same time each day, whole, and taken by mouth with water within 30 minutes of being removed from the refrigerator. No splitting or crushing of tablets is allowed.
# If applicable, an assessment of efficacy will also be made at the end of this antifungal treatment at EOT.
# Eradication is defined as a negative blood culture(s) for Candida spp. in the absence of additional antifungal therapy (except for protocol-allowed step-down treatment [e.g., fluconazole]) through EOT
# Candida spp. [9] = experiment: In vitro activity against Candida spp. isolates from the study; assay type: cell-based; details: including isolates resistant to other antifungal agents
# Text: A total of 21 patients were enrolled in the study: 20 were included in the mITT. Median duration of Compound 1 therapy was 11 days (range 5 to 14). All patients received IV Compound 1, 48% (10/21) received PO Compound 1.
# [10] = in vivo
# [11] = patients with renal insufficiency
# [12] = patients with renal insufficiency (n=14)
smiles,measurement,setting,value
Nc1ncccc1-c1cc(Cc2ccc(COc3ccccn3)cc2)no1 [Compound 1A],pulmonary fungal colony counts,[1],reduced pulmonary fungal colony counts
same,survival rates,[1],statistically significantly improved survival rates
same,inhibition of fungal GWT1 enzyme,[2],inhibits
same,antifungal activity against clinical isolates,[3],demonstrated antifungal activity
same,in vitro antifungal activity,[4],broad in vitro antifungal activity
same,inhibition of PIGW protein,[5],does not inhibit
Nc1c(-c2cc(Cc3ccc(COc4ccccn4)cc3)no2)ccc[n+]1COP(=O)([O-])O [Compound 1],pulmonary fungal colony counts,[1],reduced pulmonary fungal colony counts
same,survival rates,[1],statistically significantly improved survival rates
same,DLTs,"[6]; 2 Phase 1 studies, healthy volunteers",No DLTs were observed
same,safety and tolerability,"[6]; 2 Phase 1 studies, healthy volunteers, IV and PO formulations",safe and well tolerated
same,safety and tolerability,"[6]; FIH Phase 1: 1000 mg IV 2-hour infusion BID Day 1, then 600 mg IV 1-hour infusion QD Days 2 through 7",safe and well tolerated
same,safety and tolerability,[6]; second Phase 1 study: 1000 mg PO QD Days 1 through 14,safe and well tolerated
same,fungal burden,[7],reduced fungal burden
same,survival rates,[7],statistically significantly improved survival rates
same,tissue distribution,Tissue distribution,"wide-tissue distribution, including the eye and central nervous system"
same,DRC-assessed success rate at EOST,Candida spp. [8]; mITT (16/20),80%
same,Survival at day 30,Candida spp. [8]; mITT (17/20),85%
same,tolerability,"Candida spp. [8]; patients with candidemia, up to 14 days",well-tolerated with no treatment-related serious adverse events or discontinuations
same,effect of renal impairment on exposure,Candida spp. [8]; [11],did not increase exposure
same,treatment-related adverse events,Candida spp. [8]; [11],no treatment-related adverse events
same,Treatment success rate at EOST,Candida spp. [8]; patients with renal insufficiency (12/14),86%
same,worsening of renal function at EOST,Candida spp. [8]; [12],None
same,worsening of renal function during the follow-up period,Candida spp. [8]; [12],4 patients
same,in vitro activity against Candida spp. from the study,Candida spp. [9],potent in vitro activity
same,conversion of prodrug to compound 1A,[10],rapidly converted in vivo
